Test results taken from patent US20080261913A1, “Compounds and pharmaceutical compositions for the treatment of liver disorders” (Idenix Pharmaceuticals, Inc., priority 2006, published 2008).
Several values for one entry are separate records, joined by “and”; a condition that tells them apart may be missing. Equal entries are not always repeated.

Tests used:
[1] = system: Primary hepatocyte cultures (human); test: Determination of triphosphate levels in cells, human primary hepatocytes; type: in vitro ADME; settings: general statement on the table of b531, 10 μM drug
Method: Freshly isolated cells from animal and human liver were obtained in suspension on ice. Following receipt, cells were pelleted by centrifugation at 500 rpm (rat) or 700 rpm (monkey and human) and resuspended at 0.8 million cells per mL of platting medium (HPM). Multi-well collagen-coated plates (12-well) were then seeded by addition of 1 mL of cell suspention (0.8 million cells/mL). The plates were gently shaken to evenly distribute the cells and placed in an incubator at 37° C. for approximately 4 to 6 hours to allow cells to attach. Once cells have attached, the platting medium was removed and replaced with hepatocyte culture medium (HCM). Cells were left overnight in an incubator at 37° C. to acclimatize to culture and the medium.
Hepatocyte incubations were conducted in a final volume of 1.0 mL HCM/well (0.8 million cells/mL). HCM from overnight incubation of cells was removed and replaced with fresh HCM, pre-warmed to 37° C., containing 10 μM test article from a stock solution in DMSO (final DMSO concentration was 0.1%). […]
Cellular extracts were prepared by transferring 0.9 mL of extract into 2 mL microfuge tubes followed by centrifugation for 5 min at 14,000 rpm. Approximately 100 μL of the supernatant was transferred to HPLC vials and triphosphate levels determined by LCMS/MS as described below. […]

[2] = system: Primary hepatocytes (human); test: In vitro phosphorylation in hepatocytes (LddA-TP formation), human; type: in vitro ADME
Method: (§1) Measurements of the concentration of 2′-3′-dideoxyadenosine-5′-triphosphate (ddATP) (the triphosphate nucleotide of 2′-3′-dideoxyadenosine (ddA) are performed by liquid chromatography tandem mass spectrometry (LC/MS/MS), e.g., of methanolic extracts of hepatocytes.
(§2) The concentration of ddATP is measured by comparison to a standard curve. Working stock solutions of TP-ddA are prepared from a […] stock solution in de-ionized water of ddATP (tetrasodium salt of >91% purity) purchased from Sigma Chemical Co as follows:
(§3) HPLC is conducted on Phenomenex Luna Amino 3 μm 100 A, 30×2 mm column, with a mobile phase: A: 70% 10 mM NH4OAc 30% ACN pH 6.0; and B: 70% 1 mM NH4OAc 30% ACN pH 10.5 as follows:
(§4) Primary hepatocytes (Rat, Cynomolgus Monkey or human) were seeded at 0.8×10^6 in a collagen-coated 12-well plate and allowed to attach 4-6 hours after which time the seeding medium was replaced with serum-free culture medium and cells allowed to acclimatize to the new medium overnight. On the next day, cells were exposed for 1, 4, 8 and 24 hours to test article A550 (NM204) at 10 and 50 μM prepared in fresh culture medium from stock solution in DMSO (final DMSO concentration was 0.1%). At each time point, an aliquot (500 μl) was collected and immediately added to 500 μl of acetonitrile and stored at −20° C. until analysis. The remaining exposure medium was removed and the cell monolayer (stuck to dish) washed 2 times with ice-cold PBS. Any remaining PBS was carefully removed by aspiration and cells were harvested by scraping in 1 mL 70% ice-cold methanol. Cell samples were placed overnight at −20° C. and cellular debris removed by centrifugation on the next day. The supernatants were removed and filtered prior to analysis by LC/MS. A standard curve was prepared by using untreated cells processed similarly except that prior to harvesting in 70% methanol, 10 μl of LddATP standard solutions prepared in methanol were added to the washed monolayers. These control samples were then processed and analyzed as described for test samples.

[3] = system: Primary hepatocytes (Cynomolgus Monkey); test: In vitro phosphorylation in hepatocytes (LddA-TP formation), monkey; type: in vitro ADME
Method: as §1, §2, §3, §4

[4] = In vivo studies in rat: A550 and LddATP measured in livers after IV or oral dose; settings: male rat liver
Method: Distribution of A550 (NM-204) (the compound of Example 1 (Hydroxy-tBuSATE N-benzylphosphoroamidate derivative of L-ddA) in the rat liver was evaluated following a single intravenous (I.V.) or oral administration of A550 (NM-204) at a dose of 20 (oral) or 10 (I.V.) mg/Kg body weight. The dose solutions were prepared on the same day prior to dose administration.
At the specified time point (1 and 3 hours for IV animals or 1, 3 and 8 hours for oral animals), each animal was euthanized by CO2 gas followed by exsanguination via the abdominal vein. Livers were collected immediately after sacrifice, flash frozen in liquid nitrogen, placed on dry ice, and later stored at −70° C., before being analyzed.
Control rat liver samples were taken from whole frozen livers (Bioreclamation, Inc. Hicksville, N.Y.) with the aid of a tissue coring utensil (Harris Unicore, 8.0 mm, VWR). Each ˜0.1 g sample was placed in individual 2 mL poly vials with 0.940 mL of 80% MeOH/20% DIH2O and homogenates were prepared using a mechanical tissue disruptor (Tissue Master, Omni-International, Inc, Marietta Ga.). The vials received a 10 μl aliquot of a working stock solution and a 50 μl aliquot of the ISTD before vortexing for ˜30 sec. The mixtures were stored overnight at −20° C. and the next day were removed for 10 min of centrifugation in a benchtop centrifuge. Each supernatant was transferred to individual centrifugation filtration units (0.45 μm) and the resulting filtrates were transferred to HPLC vials for the LC/MS/MS analysis. The final concentrations of ddATP in the calibration standards was 1000, 500, 250, 125, 50, and 0 pmol/ml. Each calibration standard was directly injected in a 50 μL volume onto the ion-exchange column for analysis. Standard curve analysis of calibration standards from control liver extracts was conducted.
Analysis of ddATP was done by an ion-exchange chromatography method with on-line positive ionization ESI-MS/MS detection in multiple reaction monitoring (MRM) detection mode. […] This is equivalent to a range of […] per gram liver by the sample preparation employed. The HPLC MS MS conditions described in Example 5 were utilized.

[5] = system: Primary hepatocytes (Rat); test: In vitro phosphorylation in hepatocytes (LddA-TP formation), rat; type: in vitro ADME
Method: as §1, §2, §3, §4

[6] = IV dose 10 mg/kg, 1 hr, individual animals, 10 mg/kg
[7] = IV dose 10 mg/kg, 3 hrs, individual animals, 10 mg/kg
[8] = Oral dose 20 mg/kg, 1 hr, individual animals, 20 mg/kg
[9] = Oral dose 20 mg/kg, 3 hrs, Mean
[10] = Oral dose 20 mg/kg, 3 hrs, individual animals, 20 mg/kg
[11] = Oral dose 20 mg/kg, 8 hrs, Mean
[12] = Oral dose 20 mg/kg, 8 hrs, individual animals, 20 mg/kg

CC(C)(CO)C(=O)SCCOP(=O)(NCc1ccccc1)OC[C@H]1O[C@@H](n2ccc(N)nc2=O)[C@](C)(O)[C@@H]1O (mixture of isomers) [Example B102, Hydroxy-tBuSATE N-Benzylphosphoroamidate Derivative of 2′-C-methylcytidine]
levels of intracellular triphosphate as compared to those for NM107 [1]: much higher

Hydroxy-tBuSATE N-benzylphosphoroamidate derivative of L-ddA [Example A550]
LddA TP Levels ([2]; 10 μM, 1 hour): 161.5 pmol/million cells | LddA TP Levels ([2]; 10 μM, 4 hours): 312.5 pmol/million cells | LddA TP Levels ([2]; 10 μM, 8 hours): 352.5 pmol/million cells | LddA TP Levels ([2]; 10 μM, 24 hours): 366.0 pmol/million cells | LddA TP Levels ([2]; 50 μM, 1 hour): 682.5 pmol/million cells | LddA TP Levels ([2]; 50 μM, 4 hours): 1480.0 pmol/million cells | LddA TP Levels ([2]; 50 μM, 8 hours): 1930.0 pmol/million cells | LddA TP Levels ([2]; 50 μM, 24 hours): 2062.5 pmol/million cells | LddA TP Levels ([3]; 10 μM, 1 hour): 287.5 pmol/million cells | LddA TP Levels ([3]; 10 μM, 4 hours): 978.0 pmol/million cells | LddA TP Levels ([3]; 10 μM, 8 hours): 1230.0 pmol/million cells | LddA TP Levels ([3]; 10 μM, 24 hours): 344.0 pmol/million cells | LddA TP Levels ([3]; 50 μM, 1 hour): 2085.0 pmol/million cells | LddA TP Levels ([3]; 50 μM, 4 hours): 5690.0 pmol/million cells | LddA TP Levels ([3]; 50 μM, 8 hours): 6030.0 pmol/million cells | LddA TP Levels ([3]; 50 μM, 24 hours): 3030.0 pmol/million cells | Concentration Compound (Ex 1) ([4]; IV dose 10 mg/kg, 1 hr, Mean): 80.0 pmol/g liver | Concentration. ddA-TP ([4]; IV dose 10 mg/kg, 1 hr, Mean): 1770 pmol/g liver | Concentration. ddA-TP ([4]; IV dose 10 mg/kg, 1 hr, Mean, via hepatocellularity number): 15.5 pmol/10^6 cells | Concentration Compound (Ex 1) [4, 6]: 85.1 pmol/g liver and 65.8 pmol/g liver and 89.1 pmol/g liver | Concentration. ddA-TP [4, 6]: 1355 pmol/g liver and 2025 pmol/g liver and 1930 pmol/g liver | Concentration. ddA-TP ([4]; IV dose 10 mg/kg, 1 hr, individual animals, via hepatocellularity number, 10 mg/kg): 11.9 pmol/10^6 cells and 17.8 pmol/10^6 cells and 16.9 pmol/10^6 cells | Concentration Compound (Ex 1) ([4]; IV dose 10 mg/kg, 3 hrs, Mean): 27.9 pmol/g liver | Concentration. ddA-TP ([4]; IV dose 10 mg/kg, 3 hrs, Mean): 2092 pmol/g liver | Concentration. ddA-TP ([4]; IV dose 10 mg/kg, 3 hrs, Mean, via hepatocellularity number): 18.3 pmol/10^6 cells | Concentration Compound (Ex 1) [4, 7]: 28.3 pmol/g liver and 26.0 pmol/g liver and 29.3 pmol/g liver | Concentration. ddA-TP [4, 7]: 1345 pmol/g liver and 1940 pmol/g liver and 2990 pmol/g liver | Concentration. ddA-TP ([4]; IV dose 10 mg/kg, 3 hrs, individual animals, via hepatocellularity number, 10 mg/kg): 11.8 pmol/10^6 cells and 17.0 pmol/10^6 cells and 26.2 pmol/10^6 cells | Concentration Compound (Ex 1) ([4]; Oral dose 20 mg/kg, 1 hr, Mean): 251 pmol/g liver | Concentration. ddA-TP ([4]; Oral dose 20 mg/kg, 1 hr, Mean): 395 pmol/g liver | Concentration. ddA-TP ([4]; Oral dose 20 mg/kg, 1 hr, Mean, via hepatocellularity number): 3.5 pmol/10^6 cells | Concentration Compound (Ex 1) [4, 8]: 411 pmol/g liver and 272 pmol/g liver and 70.2 pmol/g liver | Concentration. ddA-TP [4, 8]: 210 pmol/g liver and 575 pmol/g liver and 400 pmol/g liver | Concentration. ddA-TP ([4]; Oral dose 20 mg/kg, 1 hr, individual animals, via hepatocellularity number, 20 mg/kg): 1.8 pmol/10^6 cells and 5.0 pmol/10^6 cells and 3.5 pmol/10^6 cells | Concentration Compound (Ex 1) [4, 9]: 204 pmol/g liver | Concentration. ddA-TP [4, 9]: 312 pmol/g liver | Concentration. ddA-TP ([4]; Oral dose 20 mg/kg, 3 hrs, Mean, via hepatocellularity number): 2.7 pmol/10^6 cells | Concentration Compound (Ex 1) [4, 10]: 360 pmol/g liver and 92.1 pmol/g liver and 161 pmol/g liver | Concentration. ddA-TP [4, 10]: 200 pmol/g liver and 330 pmol/g liver and 405 pmol/g liver | Concentration. ddA-TP ([4]; Oral dose 20 mg/kg, 3 hrs, individual animals, via hepatocellularity number, 20 mg/kg): 1.8 pmol/10^6 cells and 2.9 pmol/10^6 cells and 3.6 pmol/10^6 cells | Concentration Compound (Ex 1) [4, 11]: 20.1 pmol/g liver | Concentration. ddA-TP [4, 11]: 382 pmol/g liver | Concentration. ddA-TP ([4]; Oral dose 20 mg/kg, 8 hrs, Mean, via hepatocellularity number): 3.3 pmol/10^6 cells | Concentration Compound (Ex 1) [4, 12]: 16.4 pmol/g liver and 28 pmol/g liver and 16.2 pmol/g liver | Concentration. ddA-TP [4, 12]: 280 pmol/g liver and 805 pmol/g liver and 275 pmol/g liver | Concentration. ddA-TP ([4]; Oral dose 20 mg/kg, 8 hrs, individual animals, via hepatocellularity number, 20 mg/kg): 2.5 pmol/10^6 cells and 5.2 pmol/10^6 cells and 2.4 pmol/10^6 cells | LddA TP Levels ([5]; 10 μM, 1 hour): 159.5 pmol/million cells | LddA TP Levels ([5]; 10 μM, 4 hours): 388.0 pmol/million cells | LddA TP Levels ([5]; 10 μM, 8 hours): 468.5 pmol/million cells | LddA TP Levels ([5]; 10 μM, 24 hours): 422.0 pmol/million cells | LddA TP Levels ([5]; 50 μM, 1 hour): 393.0 pmol/million cells | LddA TP Levels ([5]; 50 μM, 4 hours): 1212.0 pmol/million cells | LddA TP Levels ([5]; 50 μM, 8 hours): 1590.0 pmol/million cells | LddA TP Levels ([5]; 50 μM, 24 hours): 1505.0 pmol/million cells
